Data published in patent publication US9107408B2, “Plant disease controlling composition and method for controlling plant disease” (SUMITOMO CHEMICAL COMPANY, LIMITED, priority 2010, dated 2015).
Like-named read-outs stand apart in the source and are kept apart here.

System: gray mold fungus (Botrytis cinerea)
Test: Cucumber leaf disk preventive test against gray mold fungus
Assay type: in vivo
Settings: for pest or weed control at 0.5 ppm / pest or weed control at 5 ppm: Botrytis cinerea, foliar, 96 h, read-out: preventive value (%)
Experimental: True leaf of cucumber is punched out with cork borer to 13 mm in diameter to prepare a leaf disk. In 24 well microwell plate that is dispensed with 1 ml 0.8% water agar, the leaf disk is placed such that the upper side of the leaf is in an upward direction. Thereto is added 20 micro liter a testing solution prepared by mixing a dimethyl sulfoxide solution of the present compound (racemate) and a dimethyl sulfoxide solution of tebuconazole to a predetermined concentration to treat the leaf disk.
After confirming that the testing medical solution is dried, conidium of gray mold fungus (Botrytis cinerea) is suspended into potato dextrose broth (DIFCO) in a density of about 10^5 conidium/mL and is then subjected to a spray inoculation. After leaving to stand the leaf disk in a growth chamber set up at 15° C. for four days, an onset area on the leaf is measured and then calculated an onset area rate (hereinafter, referred to as an onset area rate of treated group).
The same operation is carried out with 20 micro liter water instead of 20 micro liter a testing medicine solution to calculate an onset area rate (hereinafter, referred to an onset area rate of non-treated group).
A preventive value is calculated from the above onset area rate of treated group and the onset area rate of non-treated group by the following equation: Preventive value (%)=100×(A−B)/A
A: an onset area rate of treated group
B: an onset area rate of non-treated group
The same operations as described in Test Example 1 are carried out with triadimenol, bitertanol, oxpoconazole fumarate, cyazofamid, pefurazoate, triflumizole, or hymexazol instead of tebuconazole, so as to calculate respective preventive values.
Also for comparison, the same operations as described in Test Example 1 are carried out with the exception that the testing medicine solution is substituted with a predetermined concentration of each dimethyl sulfoxide solution of the present compound (racemate), triadimenol, bitertanol, oxpoconazole fumarate, cyazofamid, pefurazoate, triflumizole, or hymexazol, so as to calculate respective preventive values.
For comparison, the same operations as described in Test Example 1 are carried out with the exception that the testing medicine solution is substituted with a predetermined concentration of a dimethyl sulfoxide solution of tebuconazole, so as to calculate a preventive value.

[1] = azole compound alone 0.5 ppm, cucumber leaf disk, 15° C., four days
[2] = azole compound alone 5.0 ppm, cucumber leaf disk, 15° C., four days

Row | Structure (SMILES) | pest or weed control at 0.5 ppm [1] [%] | pest or weed control at 5 ppm [2] [%] | other results
1 | CC(C)(C)C(O)C(Oc1ccc(-c2ccccc2)cc1)n1cncn1 (stereo not shown) [bitertanol] | 45 | 56 | –
2 | Cc1ccc(-c2c(Cl)nc(C#N)n2S(=O)(=O)N(C)C)cc1 [cyazofamid] | 10 | 15 | –
3 | Cc1cc(O)no1 [hymexazol] | 5 | 10 | –
4 | CC1(C)COC(C)(CCCc2ccc(Cl)cc2)N1C(=O)n1ccnc1.CC1(C)COC(C)(CCCc2ccc(Cl)cc2)N1C(=O)n1ccnc1.O=C(O)/C=C/C(=O)O (stereo not shown) [oxpoconazole fumarate] | – | – | preventive value (%) [1]: 49%; preventive value (%) [2]: 59%
5 | C=CCCCOC(=O)C(CC)N(Cc1ccco1)C(=O)n1ccnc1 (stereo not shown) [pefurazoate] | – | – | pest or weed control at 0.5 ppm: 44%; pest or weed control at 5 ppm: 53%
6 | CC(C)(C)C(O)(CCc1ccc(Cl)cc1)Cn1cncn1 (stereo not shown) [tebuconazole] | 40 | 54 | –
7 | CC(C)(C)C(O)C(Oc1ccc(Cl)cc1)n1cncn1 (stereo not shown) [triadimenol] | 45 | 58 | –
8 | CCCOC/C(=N\c1ccc(Cl)cc1C(F)(F)F)n1ccnc1 [triflumizole] | 44 | 57 | –
